In patent US20230303712A1, “METHODS OF TREATING GLIOBLASTOMA” (Ramot at Tel-Aviv University Ltd., priority 2020, published 2023):
Entries after “also recorded” stand apart in the source; their conditions may differ.

How the values were obtained:
primary human microglia = test: Phagocytosis assay with fluorescent latex beads; assay type: cell-based; conditions: added to rSELP; SELPi 0.5 µM, antibodies 2.5 µg/ml
Procedure: Phagocytosis assay. Primary human/murine microglia were seeded in 96 well plates (1 × 10^5 cells/ml) in microglia medium, microglia medium supplemented with rSELP (1.5 µg/ml for human microglia and 3.5 µg/ml for murine microglia), microglia medium supplemented with rSELP and SELPi (0.5 µM), microglia medium supplemented with rSELP and anti-PSGL-1 neutralizing antibody (2.5 µg/ml), microglia medium 13 supplemented with rSELP and anti-CD44 neutralizing antibody (2.5 µg/ml) or microglia medium supplemented with rSELP and anti-CD24 neutralizing antibody (2.5 µg/ml) for 48 h. The medium was then replaced by fresh microglia medium containing green fluorescence latex beads for 2-6 h and washed with PBS supplemented with Hoechst staining solution for 10 min. For evaluation of murine macrophages phagocytosis abilities, macrophages were seeded in 96 well plates (5 × 10^5 cells/ml), treated with macrophages medium, macrophages medium supplemented with rSELP (3.5 µg/ml), macrophages medium supplemented with rSELP and SELPi (0.5 µM), macrophages medium supplemented with rSELP and anti-PSGL-1 neutralizing antibody (2.5 µg/ml), macrophages medium supplemented with rSELP and anti-CD44 neutralizing antibody (2.5 µg/ml) or macrophages medium supplemented with rSELP and anti-CD24 neutralizing antibody (2.5 µg/ml) for 48 h. […]

GL261 GB tumors = test: SELPi treatment in murine GL261 GB model; assay type: in vivo, C57BL/6 mice
Procedure: Tumor volume was evaluated by MRI.
SELPi treatments. KF 38789 (SELPi) is a commercially-available P-Selectin inhibitor manufactured by Tocris BioScience. […] This compound is commonly used for research of immune-related processes such as tumor metastases formation. For the experiment described above, SELPi (0.8 mg/ml) was dissolved in DMSO (0.01%), polyethyleneglycol (93.2 mg/ml), Tween-80 (14.8 mg/ml) and DDW. Mice were injected with 16 mg/kg IV, twice a week, three times a week or QOD as described above. As control (vehicle), mice were injected with DMSO (0.01%), polyethyleneglycol (93.2 mg/ml), Tween-80 (14.8 mg/ml), in DDW at equivalent volume.
MRI imaging. Tumor bearing mice were imaged at the Sackler Cellular & Molecular Imaging Center (SCMIC), Tel Aviv University. Mice were anesthetized by ketamine (150 mg/kg) and xylazine (12 mg/kg) injected IP. T1 with contrast agent (Magnetol, Gd-DTPA, Soreq M.R.C. Israel Radiopharmaceuticals) and T2 weighted images were taken by 4.7T MRI - MRS 4000™ (MR solutions).

In the case of `COc1ccc(C2CC(c3c(O)cc(C)oc3=O)=NCCS2)c(OC)c1` (stereo not drawn) [SELPi, 3-[7-(2,4-Dimethoxyphenyl)-2,3,6,7-tetrahydro-1,4-thiazepin-5-yl]-4-hydroxy-6-methyl-2H-pyran-2-one], the “restoration of phagocytic function” value (primary human microglia) was “restored the phagocytic function”, the “tumor volume (MRI)” value (GL261 GB tumors; GL261, SELPi IV 16 mg/kg three times a week, 16 mg/kg) was “significant reduction in tumor volume; also recorded: reduced tumor growth” and the “CD4+ and CD8+ T cells in tumors” value (GL261 GB tumors; GL261 tumors) was “increase”. The “CD4+/FOXP3+ T cells in tumors” value (GL261 GB tumors; GL261 tumors) was “decrease”, the “blood vessel density (CD31 immunostaining)” value (GL261 GB tumors; GL261 tumors) was “clear reduction” and the “proliferation (Ki-67 immunostaining)” value (GL261 GB tumors; GL261 tumors) was “clear reduction”.
